{
  "source": "patent US20260199324A1",
  "about": "“METHOD OF TREATING BREAST CANCER” (Arvinas Operations, Inc., priority 2022, published 2026)",
  "key": {"[1]": {"assay": "Safety and tolerability (TEAEs, clinical laboratory tests, vital signs, ECGs) in the Phase 1 drug-drug interaction study", "format": "in vivo, human", "conditions": "for number of all-causality adverse events (AEs): 24 participants", "description": "This was a Phase 1, open-label, 2-period, fixed-sequence study to estimate the effect of a single oral dose of Compound A on the PK of a P-gp substrate, dabigatran etexilate (as mesylate), in healthy male participants and female participants with nonchildbearing potential.\nOn Period 1 Day 1, a standard breakfast (approximately 700 calories with a fat content of approximately 35%) was provided prior to dosing. The standard breakfast was required to be completely consumed within an approximately 20-minute period. A single dose of 75 mg dabigatran etexilate (as mesylate) (as 1 capsule of 75 mg) was administered approximately 2 hrs (120 mins) after starting the standard breakfast. To adequately remove any drug effects of dabigatran, a minimum washout period of 4 days was required after dabigatran etexilate (as mesylate) administration on Period 1 Day 1. Serial PK samples were collected up to 48 hrs after single dose administration to determine dabigatran PK parameters (total).\nOn Period 2 Day 1, a standard breakfast (approximately 700 calories with a fat content of approximately 35%) was provided prior to Compound A and dabigatran etexilate (as mesylate) dosing. The standard breakfast was required to be the same as provided in Period 1 Day 1 and was required to be completely consumed within an approximately 20-minute period. A single dose of 200 mg Compound A (as 2 tablets of 100 mg) was administered approximately 10 mins after the completion of the breakfast. A single dose of 75 mg dabigatran etexilate\n(as mesylate) (as 1 capsule of 75 mg) was administered approximately 1.5 hour (90 mins) after the start of Compound A dosing, which was approximately 2 hrs (120 mins) after the start of the breakfast. Serial PK samples were collected up to 48 hrs post dabigatran etexilate (as mesylate) dosing to determine the single dose PK parameters of Compound A and dabigatran (total) • Masking: No masking (open label) • Enrollment number: 24\nCompound A co-administered with dabigatran etexilate mesylate was the test treatment. All safety analyses were performed on the safety analysis set. Safety data were presented in tabular and/or graphical format and summarized descriptively, where appropriate in accordance with the Clinical Data Interchange Standards Consortium Standards […]."}, "[2]": {"test_system": "ER-dependent transcription", "assay": "Antagonism of ER-dependent transcription", "format": "cell-based"}, "[3]": {"assay": "Preclinical exposure of epimer Compound B compared to Compound A", "format": "in vivo", "conditions": "preclinical data; Compound B formed by interconversion (epimer) of Compound A"}, "[4]": {"biological_target": "T1, ER (Homo sapiens, UniProt P03372)", "T1 sequence (P03372 1-595)": "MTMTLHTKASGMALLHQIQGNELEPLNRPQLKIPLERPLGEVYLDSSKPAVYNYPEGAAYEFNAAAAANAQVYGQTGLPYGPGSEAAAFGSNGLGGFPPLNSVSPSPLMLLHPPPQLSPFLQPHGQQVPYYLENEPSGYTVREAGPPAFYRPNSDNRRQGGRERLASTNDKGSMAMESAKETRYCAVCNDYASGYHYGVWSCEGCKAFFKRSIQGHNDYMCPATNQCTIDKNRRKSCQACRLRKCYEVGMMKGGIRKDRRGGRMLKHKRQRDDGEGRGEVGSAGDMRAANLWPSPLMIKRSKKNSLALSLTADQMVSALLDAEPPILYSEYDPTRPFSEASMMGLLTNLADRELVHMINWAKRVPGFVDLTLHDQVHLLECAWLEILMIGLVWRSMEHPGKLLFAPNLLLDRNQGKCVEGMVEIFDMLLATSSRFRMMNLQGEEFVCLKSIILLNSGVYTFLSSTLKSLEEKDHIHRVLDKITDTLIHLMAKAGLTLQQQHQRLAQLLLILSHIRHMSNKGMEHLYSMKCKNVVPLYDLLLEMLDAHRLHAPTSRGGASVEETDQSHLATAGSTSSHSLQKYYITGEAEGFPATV", "assay": "ER degradation", "format": "cell-based"}, "[5]": {"assay": "Biopharmaceutics Classification System class", "format": "physicochemical", "conditions": "low solubility/low permeability"}, "[6]": {"biological_target": "T2, P-gp (Homo sapiens, UniProt P08183)", "T2 construct": "from tissue; host or cells: intestine of healthy human participants (in vivo)", "T2 sequence (P08183 whole entry)": "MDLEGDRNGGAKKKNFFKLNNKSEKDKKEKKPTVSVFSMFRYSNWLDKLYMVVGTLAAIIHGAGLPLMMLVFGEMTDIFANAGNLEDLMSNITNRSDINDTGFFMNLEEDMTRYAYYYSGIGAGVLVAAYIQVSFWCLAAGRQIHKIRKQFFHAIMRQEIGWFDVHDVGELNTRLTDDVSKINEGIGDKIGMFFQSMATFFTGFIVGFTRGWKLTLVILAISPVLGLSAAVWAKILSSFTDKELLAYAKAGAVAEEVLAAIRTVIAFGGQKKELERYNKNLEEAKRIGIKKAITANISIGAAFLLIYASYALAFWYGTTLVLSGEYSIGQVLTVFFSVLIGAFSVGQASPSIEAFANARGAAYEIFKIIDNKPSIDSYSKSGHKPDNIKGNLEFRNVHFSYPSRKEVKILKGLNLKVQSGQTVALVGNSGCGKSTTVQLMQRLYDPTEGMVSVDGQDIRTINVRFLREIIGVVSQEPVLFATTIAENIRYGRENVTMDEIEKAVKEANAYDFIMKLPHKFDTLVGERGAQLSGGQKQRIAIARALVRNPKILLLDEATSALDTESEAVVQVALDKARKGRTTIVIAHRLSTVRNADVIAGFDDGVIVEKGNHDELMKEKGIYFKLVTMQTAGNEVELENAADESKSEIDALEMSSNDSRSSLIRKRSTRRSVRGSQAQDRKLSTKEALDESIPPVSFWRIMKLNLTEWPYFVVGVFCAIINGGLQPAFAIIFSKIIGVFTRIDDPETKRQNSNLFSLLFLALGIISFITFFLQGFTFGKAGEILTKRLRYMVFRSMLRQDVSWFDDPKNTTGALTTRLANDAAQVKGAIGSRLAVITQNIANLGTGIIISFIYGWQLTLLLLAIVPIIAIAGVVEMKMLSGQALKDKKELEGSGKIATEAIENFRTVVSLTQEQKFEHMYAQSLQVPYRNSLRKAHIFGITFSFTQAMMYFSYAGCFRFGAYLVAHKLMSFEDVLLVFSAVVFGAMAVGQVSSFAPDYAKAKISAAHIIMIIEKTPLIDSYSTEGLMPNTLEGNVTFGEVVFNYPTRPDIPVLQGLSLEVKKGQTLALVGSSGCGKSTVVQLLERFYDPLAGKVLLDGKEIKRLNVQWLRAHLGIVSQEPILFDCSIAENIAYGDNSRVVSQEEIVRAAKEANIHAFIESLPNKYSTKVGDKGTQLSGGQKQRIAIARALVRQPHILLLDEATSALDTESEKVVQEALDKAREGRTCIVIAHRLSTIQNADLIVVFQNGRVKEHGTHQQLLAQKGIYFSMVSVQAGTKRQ", "assay": "Phase 1 open-label fixed-sequence 2-period drug-drug interaction study: effect of single oral dose of Compound A on PK of dabigatran (P-gp probe substrate)", "format": "in vivo", "conditions": "co-administration of Compound A with dabigatran in healthy participants", "description": "Compound A was investigated in an interventional, Phase 1, open-label, fixed sequence, 2-period study to evaluate the effect of a single oral dose of Compound A on the PK of dabigatran in healthy participants.\nThe objective of this drug-drug interaction study was to evaluate the impact of Compound A on the PK of dabigatran etexilate (a model substrate for P-gp) in healthy adults (NCT05673889)\nAll participants in this study received one dose of dabigatran etexilate mesylate alone by mouth in Period 1. In Period 2, everyone received one dose of dabigatran etexilate mesylate by mouth approximately 90 mins after receiving one dose of Compound A by mouth. The levels of dabigatran in Period I were compared to the levels of dabigatran in Period 2. This study design was used to determine if and how Compound A affects dabigatran absorption into the body in healthy adults.\nThis was a Phase 1, open-label, 2-period, fixed-sequence study to estimate the effect of a single oral dose of Compound A on the PK of a P-gp substrate, dabigatran etexilate (as mesylate), in healthy male participants and female participants with nonchildbearing potential. […]\nNatural log transformed parameters (AUCinf [if data permitted], AUClast, and Cmax) of total dabigatran were analyzed using a mixed effect model with treatment as a fixed effect and participant as a random effect. […]"}, "[7]": {"conditions": "single dose dabigatran etexilate mesylate 75 mg (Treatment Period 1)"}, "[8]": {"conditions": "dabigatran etexilate mesylate 75 mg alone"}, "[9]": {"conditions": "dabigatran etexilate mesylate 75 mg alone, considered treatment related"}, "[10]": {"conditions": "dabigatran etexilate mesylate 75 mg alone, not considered treatment related"}, "[11]": {"conditions": "Compound A 200 mg and dabigatran etexilate mesylate 75 mg, not considered treatment related"}, "[12]": {"conditions": "single dose Compound A 200 mg and dabigatran etexilate mesylate 75 mg"}, "[13]": {"conditions": "single dose Compound A 200 mg and dabigatran etexilate mesylate 75 mg (Treatment Period 2)"}},
  "note": "Structures can show the parent of a compound that is named as a salt.",
  "data": [
    {"smiles": "[H]/N=C(/N)c1ccc(NCc2nc3cc(C(=O)N(CCC(=O)O)c4ccccn4)ccc3n2C)cc1", "note": "[dabigatran, 3-[[2-[(4-carbamimidoylanilino)methyl]-1-methylbenzimidazole-5-carbonyl]-pyridin-2-ylamino]propanoic acid]", "values": [
      {"measurement": "participants with all-causality AEs (TEAEs)", "setting": "[1]; [7]", "result": "6 (25.0%) participants (%)"},
      {"measurement": "participants with treatment related AEs", "setting": "[1]; [7]", "result": "3 (12.5%) participants (%)"}
    ]},
    {"smiles": "CCCCCCOC(=O)NC(=N)c1ccc(NCc2nc3cc(C(=O)N(CCC(=O)OCC)c4ccccn4)ccc3n2C)cc1", "note": "[dabigatran etexilate mesylate, β-Alanine, N-[[2-[[[4-[[[(hexyloxy)carbonyl]amino]iminomethyl]phenyl]amino]methyl]-1-methyl-1H-benzimidazol-5-yl]carbonyl]-N-2-pyridinyl-, ethyl ester]", "values": [
      {"measurement": "participants with mild AE of dry throat", "setting": "[1]; [8]", "result": "1 (4.2%) participants (%)"},
      {"measurement": "participants with mild AE of lip dry", "setting": "[1]; [8]", "result": "1 (4.2%) participants (%)"},
      {"measurement": "participants with mild AE of diarrhea", "setting": "[1]; [9]", "result": "1 (4.2%) participants (%)"},
      {"measurement": "participants with mild AE of dry skin", "setting": "[1]; [9]", "result": "1 (4.2%) participants (%)"},
      {"measurement": "participants with mild AE of hot flush", "setting": "[1]; [9]", "result": "1 (4.2%) participants (%)"},
      {"measurement": "participants with mild AE of nausea", "setting": "[1]; [9]", "result": "1 (4.2%) participants (%)"},
      {"measurement": "participants with moderate AE of hematoma", "setting": "[1]; [10]", "result": "2 (8.3%) participants (%)"},
      {"measurement": "participants with moderate AE of myalgia", "setting": "[1]; [10]", "result": "1 (4.2%) participants (%)"},
      {"measurement": "participants with Monocytes/Leukocytes >1.2× upper limit of normal (ULN)", "setting": "[1]; single dose dabigatran etexilate mesylate 75 mg", "result": "2 (8.3%) participants (%)"},
      {"measurement": "number of AEs considered treatment related", "setting": "[1]; [7]", "result": 4},
      {"measurement": "participants with all-causality AEs (TEAEs)", "setting": "[1]; [7]", "result": "6 (25.0%) participants (%)"},
      {"measurement": "participants with treatment related AEs", "setting": "[1]; [7]", "result": "3 (12.5%) participants (%)"},
      {"measurement": "number of all-causality adverse events (AEs)", "setting": "[1]; [7]", "result": 9}
    ]},
    {"smiles": "O=C1CC[C@@H](N2Cc3cc(N4CCN(CC5CCN(c6ccc([C@@H]7c8ccc(O)cc8CC[C@@H]7c7ccccc7)cc6)CC5)CC4)ccc3C2=O)C(=O)N1", "note": "[Compound B]", "values": [
      {"measurement": "antagonism of ER-dependent transcription compared to Compound A", "setting": "[2]", "result": "similar"},
      {"measurement": "exposure of Compound B compared to Compound A", "setting": "[3]", "result": "< 26", "unit": "%"},
      {"measurement": "degradation of the ER", "setting": "[4]", "result": "does not degrade the ER"}
    ]},
    {"smiles": "O=C1CC[C@H](N2Cc3cc(N4CCN(CC5CCN(c6ccc([C@@H]7c8ccc(O)cc8CC[C@@H]7c7ccccc7)cc6)CC5)CC4)ccc3C2=O)C(=O)N1", "note": "[Compound A, (S)-3-(5-(4-((1-(4-((1R,2S)-6-hydroxy-2-phenyl-1,2,3,4-tetrahydronaphthalen-1-yl)phenyl)piperidin-4-yl)methyl)piperazin-1-yl)-1-oxoisoindolin-2-yl) piperidine-2,6-dione]", "values": [
      {"measurement": "Biopharmaceutics Classification System class", "setting": "[5]", "result": "Class IV"},
      {"measurement": "P-gp inhibition (conclusion from increased dabigatran exposure)", "setting": "[6]", "result": "P-gp inhibitor"},
      {"measurement": "participants with moderate AE of contusion", "setting": "[1]; Compound A 200 mg and dabigatran etexilate mesylate 75 mg", "result": "1 (4.2%) participants (%)"},
      {"measurement": "participants with moderate AE of headache", "setting": "[1]; Compound A 200 mg and dabigatran etexilate mesylate 75 mg, considered treatment related", "result": "1 (4.2%) participants (%)"},
      {"measurement": "participants with mild AE of contusion", "setting": "[1]; [11]", "result": "1 (4.2%) participants (%)"},
      {"measurement": "participants with mild AE of oropharyngeal pain", "setting": "[1]; [11]", "result": "1 (4.2%) participants (%)"},
      {"measurement": "participants with mild AE of rhinorrhea", "setting": "[1]; [11]", "result": "1 (4.2%) participants (%)"},
      {"measurement": "participants with mild AE of wound", "setting": "[1]; [11]", "result": "1 (4.2%) participants (%)"},
      {"measurement": "participants with Leukocyte Esterase ≥1", "setting": "[1]; [12]", "result": "1 (4.2%) participants (%)"},
      {"measurement": "participants with Monocytes/Leukocytes >1.2×ULN", "setting": "[1]; [12]", "result": "2 (8.3%) participants (%)"},
      {"measurement": "number of AEs considered treatment related", "setting": "[1]; [13]", "result": 1},
      {"measurement": "participants with all-causality AEs (TEAEs)", "setting": "[1]; [13]", "result": "6 (25.0%) participants (%)"},
      {"measurement": "number of all-causality adverse events (AEs)", "setting": "[1]; [13]", "result": 7},
      {"measurement": "participants with treatment related AEs", "setting": "[1]; single dose Compound A 200 mg and dabigatran etexilate mesylate 75 mg (Treatment Period 2), headache", "result": "1 (4.2%) participants (%)"}
    ]}
  ]
}
